Source: article PMC10206591, “Identification of small molecules capable of enhancing viral membrane fusion” (Virology Journal, 2023)
Structures can show the parent of a compound that is named as a salt.

tested on: SARS-CoV-2 S-mediated membrane fusion

Row | Molecule | Z-score
1 | C/C(=C\C(=O)OCCCCCCCCC(=O)O)C[C@@H]1OC[C@H](C[C@@H]2O[C@H]2[C@@H](C)[C@H](C)O)[C@@H](O)[C@H]1O [Mupirocin] | 1,57
2 | Meclocycline sulfosalicylate | 5,55
3 | O=C1CN(/N=C/c2ccc([N+](=O)[O-])o2)C(=O)N1 [Nitrofurantoin] | 2,23
4 | C=C(NC(=O)C(=C)NC(=O)c1csc(C2=N[C@@H]3c4csc(n4)[C@H]4NC(=O)c5csc(n5)[C@H]([C@](C)(O)[C@@H](C)O)NC(=O)[C@H]5CSC(=N5)/C(=C/C)NC(=O)[C@H]([C@@H](C)O)NC(=O)c5csc(n5)[C@]3(CC2)NC(=O)[C@H](C)NC(=O)C(=C)NC(=O)[C@H](C)NC(=O)[C@H]([C@@H](C)CC)N[C@@H]2C=Cc3c([C@H](C)O)cc(nc3[C@H]2O)C(=O)O[C@@H]4C)n1)C(N)=O [Thiostrepton] | 5,52
5 | CC(=O)Nc1ccc(OCC(O)CNC(C)C)cc1 (centres unmarked) [Practolol] | 1,57
6 | COc1ccc(Cc2nccc3cc(OC)c(OC)cc23)cc1OC [Papaverine hydrochloride] | 4,33
7 | CCCOc1ccccc1-c1nc2nn[nH]c2c(=O)[nH]1 [Zaprinast] | 1,64
8 | Tyloxapol | 3,89
9 | C[C@@H]1C[C@H]2[C@@H]3CCC4=CC(=O)C=C[C@]4(C)[C@@]3(Cl)[C@@H](O)C[C@]2(C)[C@@]1(OC(=O)c1ccco1)C(=O)CCl [Mometasone furoate] | 2,51
10 | O=C([O-])c1ccccc1-c1c2cc(Br)c(=O)cc-2oc2[c]([Hg+])c([O-])c(Br)cc12.[Na+].[Na+].[OH-] [Merbromin] | 8,74
11 | COC(=O)Nc1nc2ccc(SC(C)C)cc2[nH]1 [Methiazole] | 3,16
12 | Nc1nc(O)c2[nH]nnc2n1 [Azaguanine-8] | 6,79
13 | C=CCOC(Cn1ccnc1)c1ccc(Cl)cc1Cl (centres unmarked) [Enilconazole] | 3,25
14 | CCCCc1ccc2[nH]c(NC(=O)OC)nc2c1 [Parbendazole] | 2,56
15 | C[C@]12CC[C@H]3C(=CCc4cc(O)ccc43)[C@@H]1CCC2=O [Equilin] | 1,98
16 | CCCCCCNC(=O)n1cc(F)c(=O)[nH]c1=O [Carmofur] | 4,69
17 | CN(C)c1ccc(O)c2c1C[C@H]1C[C@H]3[C@H](N(C)C)C(O)=C(C(N)=O)C(=O)[C@@]3(O)C(O)=C1C2=O [Minocycline hydrochloride] | 4,43
18 | C1CCC(C(CC2CCCCN2)C2CCCCC2)CC1 (centres unmarked) [Perhexiline maleate] | 2,68
19 | CC(C)C(=O)c1c(C(C)C)nn2ccccc12 [Ibudilast] | 1,71
20 | C[C@@H]1CN(c2c(F)c(N)c3c(=O)c(C(=O)O)cn(C4CC4)c3c2F)C[C@H](C)N1 [Sparfloxacin] | 2,09
21 | Cc1c(OCC(F)(F)F)ccnc1C[S+]([O-])c1nc2ccccc2[nH]1 (centres unmarked) [Lansoprazole] | 3,43
22 | C=CC[C@]1(O)CC[C@H]2[C@@H]3CCC4=CC(=O)CCC4=C3C=C[C@@]21C [Altrenogest] | 2,61
23 | COC(=O)Nc1nc2ccc(C(=O)c3cccs3)cc2[nH]1 [Nocodazole] | 2,99
24 | CCc1c2c(nc3ccc(OC(=O)N4CCC(N5CCCCC5)CC4)cc13)-c1cc3c(c(=O)n1C2)COC(=O)[C@]3(O)CC.Cl.O.O.O [Irinotecan hydrochloride trihydrate] | 4,23
25 | CNCCCC12CCC(c3ccccc31)c1ccccc12 [Maprotiline hydrochloride] | 2,05

Row | Molecule | Z-score
26 | CC(C)C[C@H]1C(=O)N2CCC[C@H]2[C@]2(O)O[C@](NC(=O)[C@@H]3C=C4c5cccc6[nH]c(Br)c(c56)C[C@H]4N(C)C3)(C(C)C)C(=O)N12.CS(=O)(=O)O [Bromocryptine mesylate] | 5,89
27 | COCCCOc1ccnc(C[S+]([O-])c2nc3ccccc3[nH]2)c1C (centres unmarked) [Rabeprazole Sodium salt] | 3,89
28 | CN1CCCN(C(c2ccccc2)c2ccc(Cl)cc2)CC1.Cl.Cl (centres unmarked) [Homochlorcyclizine dihydrochloride] | 2,19
29 | CC(C)c1c(C(=O)Nc2ccccc2)c(-c2ccccc2)c(-c2ccc(F)cc2)n1CC[C@@H](O)C[C@@H](O)CC(=O)O [Atorvastatin] | 1,88
30 | COc1cccc2c1C(=O)c1c(O)c3c(c(O)c1C2=O)C[C@@](O)(C(=O)CO)C[C@@H]3O[C@H]1C[C@H](N)[C@H](O)[C@H](C)O1 [Doxorubicin hydrochloride] | 4,48
31 | Cc1ccc(NC(=O)c2ccc(CN3CCN(C)CC3)cc2)cc1Nc1nccc(-c2cccnc2)n1 [Imatinib] | 2,20
32 | CC[C@H](C)C(=O)O[C@H]1CCC=C2C=C[C@H](C)[C@H](CC[C@@H]3C[C@@H](O)CC(=O)O3)[C@H]21 [Mevastatin] | 1,92
33 | C#C[C@]1(O)CC[C@H]2[C@@H]3CCc4cc(OC)ccc4[C@H]3CC[C@@]21C [Ethynylestradiol 3-methyl ether] | 1,52
34 | CN(C)[C@@H]1C(O)=C(C(N)=O)C(=O)[C@@]2(O)C(O)=C3C(=O)c4c(O)cccc4[C@@](C)(O)[C@H]3[C@H](O)[C@@H]12 [Oxytetracycline dihydrate] | 2,06
35 | CCOc1ccc(Cc2nccc3cc(OCC)c(OCC)cc23)cc1OCC [Ethaverine hydrochloride] | 4,10
36 | CC(=O)O[C@H]1C[C@@]2(C)[C@@H](C[C@@H](O)[C@H]3[C@@]4(C)CC[C@@H](O)[C@@H](C)[C@@H]4CC[C@@]32C)/C1=C(\CCC=C(C)C)C(=O)O [Fusidic acid sodium salt] | 2,35
37 | CN1CCCC(n2nc(Cc3ccc(Cl)cc3)c3ccccc3c2=O)CC1 (centres unmarked) [Azelastine hydrochloride] | 1,52
38 | CC(=O)c1ccc2c(c1)N(CCCN(C)C)c1ccccc1S2.O=C(O)/C=C\C(=O)O [Acetopromazine maleate salt] | 1,71
39 | CC=CC(=O)N(CC)c1ccccc1C (mixture of isomers) [Crotamiton] | 2,94
40 | COc1cccc2c1C(=O)c1c(O)c3c(c(O)c1C2=O)C[C@@](O)(C(C)=O)C[C@@H]3O[C@H]1C[C@H](N)[C@H](O)[C@H](C)O1 [Daunorubicin hydrochloride] | 1,79
41 | CS(=O)(=O)c1ccc([C@@H](O)[C@@H](CO)NC(=O)C(Cl)Cl)cc1 [Thiamphenicol] | 2,42
42 | CC[C@H](c1ccc(O)cc1)[C@@H](CC)c1ccc(O)cc1 [Hexestrol] | 2,65
43 | O=c1[nH]cc(F)c(=O)[nH]1 [5-fluorouracil] | 3,16
44 | C[C@]12CC[C@@H]3c4ccc(OC(=O)N(CCCl)CCCl)cc4CC[C@H]3[C@@H]1CC[C@@H]2O [Estramustine] | 3,30
45 | CN(c1nccc(=O)[nH]1)C1CCN(c2nc3ccccc3n2Cc2ccc(F)cc2)CC1 [Mizolastine] | 2,15
46 | CCCCCCC[N+](CC)(CC)CCCCc1ccc(Cl)cc1.Cc1ccc(S(=O)(=O)[O-])cc1 [Clofilium tosylate] | 2,76
47 | Oc1c(Cl)cc(Cl)c(Cl)c1Cc1c(O)c(Cl)cc(Cl)c1Cl [Hexachlorophene] | 3,99
48 | Cl.N[C@@H]1CCCCN(c2c(F)cc3c(=O)c(C(=O)O)cn(C4CC4)c3c2Cl)C1 [Besifloxacin hydrochloride] | 2,15
49 | CC1(C)O[C@@H]2C[C@H]3[C@@H]4CCC5=CC(=O)C=C[C@]5(C)[C@H]4[C@@H](O)C[C@]3(C)[C@]2(C(=O)CO)O1 [Desonide] | 1,59
50 | O=c1[nH]c(=O)n([C@H]2C[C@H](O)[C@@H](CO)O2)cc1F [Floxuridine] | 4,71
